What was measured:
Type in all cases: physicochemical
[1] = Excipient compatibility: rifaximin solutions stored at various temperatures, chemical purity by HPLC; conditions: rifaximin in named solvent
[2] = Compatibility of individual excipients with hard gelatin capsule shells; conditions: Hard Gel Capsules
Experimental: (§1) The physical compatibility of individual excipients with gelatin shell matrix was investigated. For hard gelatin capsules, solvent was filled into hard capsules and placed in scintillation vials. For soft gelatin capsules, each capsule was dipped into the excipient and then placed in scintillation vials. The vials were then subjected to various temperature conditions for up to 4 weeks. Capsules were then evaluated for physical changes (softening or hardening of capsule shell).
(§2) Hard gel capsules were purchased from VWR (catalogue number 70102) with a volume of 0.68 mL, diameter of 6.63 mm, a length of 19.0 mm and size 1. Soft gel capsules were Advil liquid-gels, 200 mg strength, 80 counts.

[3] = Compatibility of individual excipients with soft gelatin capsule shells; conditions: Soft Gel Capsules
Experimental: as §1, §2

Structure (SMILES)	Rifaximin % Label Claim (LC) ([1]; T0)	Rifaximin % Label Claim (LC) ([1]; T 2 weeks, 25° C.)	Rifaximin % Label Claim (LC) ([1]; T 2 weeks, 40° C.)	Rifaximin % Label Claim (LC) ([1]; T 2 weeks, 50° C.)	Rifaximin % Label Claim (LC) ([1]; T 4 weeks, 25° C.)	Rifaximin % Label Claim (LC) ([1]; T 4 weeks, 40° C.)	Rifaximin % Label Claim (LC) ([1]; T 4 weeks, 50° C.)	Physical change (Yes or No) ([2]; T 2 weeks, 25° C.)	Physical change (Yes or No) ([2]; T 2 weeks, 40° C.)	Physical change (Yes or No) ([2]; T 4 weeks, 25° C.)	Physical change (Yes or No) ([2]; T 4 weeks, 40° C.)	Physical change (Yes or No) ([2]; T 2 weeks, 50° C.)	Physical change (Yes or No) ([2]; T 4 weeks, 50° C.)	Physical change (Yes or No) ([3]; T 2 weeks, 25° C.)	Physical change (Yes or No) ([3]; T 2 weeks, 40° C.)	Physical change (Yes or No) ([3]; T 2 weeks, 50° C.)	Physical change (Yes or No) ([3]; T 4 weeks, 25° C.)	Physical change (Yes or No) ([3]; T 4 weeks, 40° C.)	Physical change (Yes or No) ([3]; T 4 weeks, 50° C.)
OCc1ccccc1 [Benzyl alcohol]	99.3 % Label Claim (LC)	99.8 % Label Claim (LC)	96.3 % Label Claim (LC)	96.9 % Label Claim (LC)	98.2 % Label Claim (LC)	94.0 % Label Claim (LC)	93.0 % Label Claim (LC)	Yes	Yes	Yes	Yes	–	–	–	–	–	–	–	–
CCOC(=O)CCCCCCCCC(=O)OCC [Diethyl sebacate]	102.7 % Label Claim (LC)	102.1 % Label Claim (LC)	101.7 % Label Claim (LC)	101.7 % Label Claim (LC)	101.1 % Label Claim (LC)	98.8 % Label Claim (LC)	99.8 % Label Claim (LC)	No	No	No	No	–	–	–	–	–	–	–	–
CCOCCOCCO [Diethylene glycol monoethyl ether]	–	–	–	–	–	–	–	No	No	No	No	No	No	–	–	–	–	–	–
CC(C)OC(=O)CCCCC(=O)OC(C)C [Diisopropyl adipate]	97.6 % Label Claim (LC)	95.3 % Label Claim (LC)	71.3 % Label Claim (LC)	50.3 % Label Claim (LC)	95.1 % Label Claim (LC)	64.8 % Label Claim (LC)	30.4 % Label Claim (LC)	–	–	–	–	–	–	–	–	–	–	–	–
CCCCC/C=C\C/C=C\CCCCCCCC(=O)OCC(O)CO (stereo not shown) [Glyceryl monolinoleate]	102.7 % Label Claim (LC)	98.7 % Label Claim (LC)	100.0 % Label Claim (LC)	97.4 % Label Claim (LC)	100.6 % Label Claim (LC)	100.0 % Label Claim (LC)	92.9 % Label Claim (LC)	No	No	No	No	No	No	No	No	No	No	No	No
CCCCCCCC/C=C\CCCCCCCC(=O)OCC(O)CO (stereo not shown) [Glyceryl monooleate (Type 40), Glyceryl monooleate]	92.7 % Label Claim (LC)	96.4 % Label Claim (LC)	58.3 % Label Claim (LC)	48.9 % Label Claim (LC)	95.0 % Label Claim (LC)	59.0 % Label Claim (LC)	41.7 % Label Claim (LC)	No	No	No	No	No	No	No	Yes	Yes	No	Yes	Yes
CCCCCCCC/C=C\CCCCCCCCO [Oleyl alcohol]	98.7 % Label Claim (LC)	96.3 % Label Claim (LC)	97.1 % Label Claim (LC)	95.2 % Label Claim (LC)	96.9 % Label Claim (LC)	95.0 % Label Claim (LC)	91.8 % Label Claim (LC)	No	No	No	No	–	–	–	–	–	–	–	–
CC(O)CO (stereo not shown) [Propylene glycol]	97.9 % Label Claim (LC)	96.9 % Label Claim (LC)	97.0 % Label Claim (LC)	95.7 % Label Claim (LC)	96.2 % Label Claim (LC)	95.6 % Label Claim (LC)	98.6 % Label Claim (LC)	–	–	–	–	–	–	–	–	–	–	–	–
OCCOCCOCCO [Triethylene glycol]	97.5 % Label Claim (LC)	98.3 % Label Claim (LC)	96.7 % Label Claim (LC)	95.6 % Label Claim (LC)	97.0 % Label Claim (LC)	95.0 % Label Claim (LC)	92.5 % Label Claim (LC)	Yes	Yes	Yes	Yes	–	–	–	–	–	–	–	–
CCOCCOCCO [diethylene glycol monoethyl ether]	97.3 % Label Claim (LC)	96.1 % Label Claim (LC)	89.3 % Label Claim (LC)	81.5 % Label Claim (LC)	95.4 % Label Claim (LC)	82.7 % Label Claim (LC)	74.2 % Label Claim (LC)	–	–	–	–	–	–	–	–	–	–	–	–

Source: patent publication US20230398102A1 (Bausch Health Ireland Limited, priority 2020, published 2023)
